Results on 18 compounds are retold here after patent US20230092890A1, “1, 3, 4-Oxadiazole derivative compounds as histone deacetylase 6 inhibitor, and the pharmaceutical composition comprising the same” (Chong Kun Dang Pharmaceutical Corp., priority 2019, published 2023).

Like-named read-outs stand apart in the source and are kept apart here.

What is called IC50 is the concentration that inhibits the measured activity by half.

In one experiment the target is T1, HDAC6 human recombinant (Homo sapiens, UniProt Q9UBN7).
T1 construct: purchased Calbiochem 382180
T1 sequence (Q9UBN7 1-1215): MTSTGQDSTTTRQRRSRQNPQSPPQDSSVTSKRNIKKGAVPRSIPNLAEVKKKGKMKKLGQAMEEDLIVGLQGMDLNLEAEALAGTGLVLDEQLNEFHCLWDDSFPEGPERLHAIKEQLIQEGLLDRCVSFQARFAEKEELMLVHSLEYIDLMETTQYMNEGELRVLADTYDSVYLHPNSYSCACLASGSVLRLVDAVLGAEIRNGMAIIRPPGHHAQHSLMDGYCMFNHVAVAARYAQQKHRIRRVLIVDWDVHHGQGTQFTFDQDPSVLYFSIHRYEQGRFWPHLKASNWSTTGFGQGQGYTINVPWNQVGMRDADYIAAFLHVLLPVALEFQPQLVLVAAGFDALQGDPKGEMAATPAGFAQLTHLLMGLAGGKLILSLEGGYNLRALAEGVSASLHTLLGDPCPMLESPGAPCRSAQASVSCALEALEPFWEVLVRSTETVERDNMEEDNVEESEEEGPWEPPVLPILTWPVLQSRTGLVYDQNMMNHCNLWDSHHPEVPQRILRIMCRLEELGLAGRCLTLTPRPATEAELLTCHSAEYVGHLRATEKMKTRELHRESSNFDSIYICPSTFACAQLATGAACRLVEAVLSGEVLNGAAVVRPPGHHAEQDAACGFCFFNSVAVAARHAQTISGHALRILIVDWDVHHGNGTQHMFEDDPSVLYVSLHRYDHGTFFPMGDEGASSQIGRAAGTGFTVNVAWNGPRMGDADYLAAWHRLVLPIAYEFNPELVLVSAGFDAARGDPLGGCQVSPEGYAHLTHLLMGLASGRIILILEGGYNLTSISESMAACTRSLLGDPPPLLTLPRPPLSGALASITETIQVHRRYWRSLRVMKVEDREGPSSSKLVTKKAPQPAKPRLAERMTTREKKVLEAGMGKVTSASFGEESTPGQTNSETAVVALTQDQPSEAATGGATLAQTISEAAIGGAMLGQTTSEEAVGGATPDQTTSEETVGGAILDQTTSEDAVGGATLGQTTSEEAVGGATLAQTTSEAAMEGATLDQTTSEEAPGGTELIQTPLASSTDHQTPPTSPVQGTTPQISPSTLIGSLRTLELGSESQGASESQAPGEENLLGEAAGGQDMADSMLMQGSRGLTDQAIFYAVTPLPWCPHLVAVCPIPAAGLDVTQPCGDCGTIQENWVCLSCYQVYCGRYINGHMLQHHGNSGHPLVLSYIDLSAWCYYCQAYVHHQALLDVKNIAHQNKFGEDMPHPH
Put plainly: HDAC enzyme activity inhibition (in vitro), HDAC6 assay. Type of experiment: biochemical. The gist of the method: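 Fluorescence (Ex 390, Em 460) read after a 37° C, 60 min enzyme reaction and a further 30 min developer step at 37° C. Uses recombinant human HDAC6; HDAC1 arm dosed at 100, 1000, 10000 nM.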

The target in the next experiment is T2, HDAC1 (Homo sapiens, UniProt Q13547).
T2 construct: purchased Enzolifesciences BML-AK511
T2 sequence (Q13547 whole entry): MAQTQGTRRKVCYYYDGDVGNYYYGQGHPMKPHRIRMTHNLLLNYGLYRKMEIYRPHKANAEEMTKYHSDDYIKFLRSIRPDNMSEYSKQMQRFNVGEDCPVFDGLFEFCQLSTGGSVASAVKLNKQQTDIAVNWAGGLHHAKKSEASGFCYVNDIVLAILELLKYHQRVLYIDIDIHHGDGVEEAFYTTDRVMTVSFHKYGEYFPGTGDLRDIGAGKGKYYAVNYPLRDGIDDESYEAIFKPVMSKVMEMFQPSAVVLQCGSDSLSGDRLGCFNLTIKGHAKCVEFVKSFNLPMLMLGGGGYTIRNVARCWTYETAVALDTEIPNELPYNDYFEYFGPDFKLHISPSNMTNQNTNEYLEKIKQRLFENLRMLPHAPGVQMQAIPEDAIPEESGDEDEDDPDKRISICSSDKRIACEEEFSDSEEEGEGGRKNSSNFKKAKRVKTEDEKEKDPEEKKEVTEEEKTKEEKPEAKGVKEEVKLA
Briefly: HDAC enzyme activity inhibition (in vitro), HDAC1 Fluorimetric Drug Discovery Assay Kit. It counts as biochemical. The gist of the method:
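Fluorescence read-out (Ex 390/Em 460) after developer step, 30 min at 37° C, following a 60-min 37° C enzyme reaction. Test concentrations: HDAC1 kit, 100–10000 nM (three levels); recombinant human HDAC6, 0.1–1000 nM (five levels).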

Where [1] appears, read: samples at 0.1, 1, 10, 100 and 1000 nM, 37° C. 60 minutes, fluorescence Ex 390, Em 460, read-out: HDAC6 IC50.
[2] abbreviates: samples at 100, 1000 and 10000 nM, 37° C. 60 minutes, fluorescence Ex 390, Em 460, read-out: HDAC1 IC50.

For the compound `Cc1ccc(-c2ccc3c(c2)n(C)c(=O)n3Cc2ccc(-c3nnc(C(F)F)o3)cn2)o1` [Compound 218, 1-((5-(5-(difluoromethyl)-1,3,4-oxadiazole-2-yl)pyridine-2-yl)methyl)-3-methyl-5-(5-methylfuran-2-yl)-1,3-dihydro-2H-benzo[d]imidazole-2-one], the half-maximal inhibitory concentration (IC50) on HDAC6 human recombinant (setting [1]) was 44 nM; at HDAC1 (setting [2]) it was above 10000 nM.

For the compound `Cn1c(=O)n(Cc2ccc(-c3nnc(C(F)F)o3)cn2)c2ccc(-c3ccsc3)cc21` [Compound 219, 1-((5-(5-(difluoromethyl)-1,3,4-oxadiazole-2-yl)pyridine-2-yl)methyl)-3-methyl-5-(thiophene-3-yl)-1,3-dihydro-2H-benzo[d]imidazole-2-one], the results for the IC50 at HDAC6 human recombinant (setting [1]) and on HDAC1 (setting [2]) were 33 nM and above 10000 nM, respectively.

Turning to `Cn1c(=O)n(Cc2ccc(-c3nnc(C(F)F)o3)cn2)c2ccc(-c3ccc(S(C)(=O)=O)cc3)cc21` [Compound 220, 1-((5-(5-(difluoromethyl)-1,3,4-oxadiazole-2-yl)pyridine-2-yl)methyl)-3-methyl-5-(4-(methylsulfonyl)phenyl)-1,3-dihydro-2H-benzo[d]imidazole-2-one], the concentration for half-maximal inhibition (IC50) at HDAC6 human recombinant (setting [1]) was 18 nM; at HDAC1 (setting [2]), above 10000 nM.

Regarding `Cn1c(=O)n(Cc2ccc(-c3nnc(C(F)F)o3)cn2)c2ccc(-c3ccn[nH]3)cc21` [Compound 221, 1-((5-(5-(difluoromethyl)-1,3,4-oxadiazole-2-yl)pyridine-2-yl)methyl)-3-methyl-5-(1H-pyrazole-5-yl)-1,3-dihydro-2H-benzo[d]imidazole-2-one], the half-inhibitory concentration (IC50) is 8 nM on HDAC6 human recombinant (setting [1]) and above 10000 nM on HDAC1 (setting [2]).

In the case of `Cn1nccc1-c1ccc2c(c1)n(C)c(=O)n2Cc1ccc(-c2nnc(C(F)F)o2)cn1` [Compound 222, 1-((5-(5-(difluoromethyl)-1,3,4-oxadiazole-2-yl)pyridine-2-yl)methyl)-3-methyl-5-(1-methyl-1H-pyrazole-5-yl)-1,3-dihydro-2H-benzo[d]imidazole-2-one], the IC50 at HDAC6 human recombinant (setting [1]) was 21 nM; at HDAC1 (setting [2]) it was above 10000 nM.

Take `CN1CCC(n2c(=O)n(Cc3ccc(-c4nnc(C(F)F)o4)cn3)c3cc(F)c(-c4ccc(F)cc4F)cc32)CC1` [Compound 223, 1-((5-(5-(difluoromethyl)-1,3,4-oxadiazole-2-yl)pyridine-2-yl)methyl)-5-(2,4-difluorophenyl)-6-fluoro-3-(1-methylpiperidine-4-yl)-1,3-dihydro-2H-benzo[d]imidazole-2-one]: the IC50 on HDAC6 human recombinant (setting [1]) is 16 nM; on HDAC1 (setting [2]) it was above 10000 nM.

Take `Cn1c(=O)n(Cc2ccc(-c3nnc(C(F)F)o3)cn2)c2cc(F)c(-c3cccc4[nH]ccc34)cc21` [Compound 224, 1-((5-(5-(difluoromethyl)-1,3,4-oxadiazole-2-yl)pyridine-2-yl)methyl)-6-fluoro-5-(1H-indole-4-yl)-3-methyl-1,3-dihydro-2H-benzo[d]imidazole-2-one]: the IC50 at HDAC6 human recombinant (setting [1]) was 8 nM; on HDAC1 (setting [2]) it was above 10000 nM.

Take `Cn1c(=O)n(Cc2ccc(-c3nnc(C(F)F)o3)cn2)c2cc(F)c(-c3ccc(S(C)(=O)=O)cc3)cc21` [Compound 225, 1-((5-(5-(difluoromethyl)-1,3,4-oxadiazole-2-yl)pyridine-2-yl)methyl)-6-fluoro-3-methy 1-5-(4-(methylsulfonyl)phenyl)-1,3-dihydro-2H-benzo[d]imidazole-2-one]: the half-maximal inhibitory concentration (IC50) was 11 nM on HDAC6 human recombinant (setting [1]) and above 10000 nM on HDAC1 (setting [2]).

In the case of `Cn1ccc2cc(-c3cc4c(cc3F)n(Cc3ccc(-c5nnc(C(F)F)o5)cn3)c(=O)n4C)ccc21` [Compound 227, 1-((5-(5-(difluoromethyl)-1,3,4-oxadiazole-2-yl)pyridine-2-yl)methyl)-6-fluoro-3-methy 1-5-(1-methyl-1H-indole-5-yl)-1,3-dihydro-2H-benzo[d]imidazole-2-one], the figures for the 50% inhibitory concentration (IC50) at HDAC6 human recombinant (setting [1]) and on HDAC1 (setting [2]) were 32 nM and above 10000 nM, respectively.

With `O=c1oc2cc(Cl)c(Br)cc2n1Cc1ccc(-c2nnc(C(F)F)o2)cn1` [Compound 228, 5-bromo-6-chloro-3-((5-(5-(difluoromethyl)-1,3,4-oxadiazole-2-yl)pyridine-2-yl)methyl)benzo[d]oxazole-2(3H)-one], the IC50 is 47 nM on HDAC6 human recombinant (setting [1]) and above 10000 nM at HDAC1 (setting [2]).

`O=c1oc2cc(Cl)c(-c3cccnc3)cc2n1Cc1ccc(-c2nnc(C(F)F)o2)cn1` [Compound 229, 6-chloro-3-((5-(5-(difluoromethyl)-1,3,4-oxadiazole-2-yl)pyridine-2-yl)methyl)-5-(pyridine-3-yl)benzo[d]oxazole-2(3H)-one]: the concentration for half-maximal inhibition (IC50) on HDAC6 human recombinant (setting [1]) was 312 nM; on HDAC1 (setting [2]), above 10000 nM.

Take `O=c1sc2cc(Br)ccc2n1Cc1ccc(-c2nnc(C(F)F)o2)cn1` [Compound 230, 6-bromo-3-((5-(5-(difluoromethyl)-1,3,4-oxadiazole-2-yl)pyridine-2-yl)methyl)benzo[d]thiazole-2(3H)-one]: the IC50 on HDAC6 human recombinant (setting [1]) is 16 nM; on HDAC1 (setting [2]), above 10000 nM.

For the compound `O=c1sc2cc(-c3cccnc3)ccc2n1Cc1ccc(-c2nnc(C(F)F)o2)cn1` [Compound 231, 3-((5-(5-(difluoromethyl)-1,3,4-oxadiazole-2-yl)pyridine-2-yl)methyl)-6-(pyridine-3-yl) benzo[d]thiazole-2(3H)-one], the half-inhibitory concentration (IC50) on HDAC6 human recombinant (setting [1]) was 9 nM; on HDAC1 (setting [2]), above 10000 nM.

On to `O=c1n(Cc2ccc(-c3nnc(C(F)F)o3)cn2)c2cc(Cl)ccc2n1C1CCN(CC(F)(F)C(F)(F)C(F)(F)F)CC1` [Compound 232, 5-chloro-3-((5-(5-(difluoromethyl)-1,3,4-oxadiazole-2-yl)pyridine-2-yl)methyl)-1-(1-(2,2,3,3,4,4,4-heptafluorobutyl)piperidine-4-yl)-1,3-dihydro-2H-benzo[d]imidazole-2-one], for which the values for the half-inhibitory concentration (IC50) on HDAC6 human recombinant and against HDAC1 were 643 nM and above 10000 nM, respectively.

Turning to `CCC(F)(F)CN1CCC(n2c(=O)n(Cc3ccc(-c4nnc(C(F)F)o4)cn3)c3cc(Cl)ccc32)CC1` [Compound 233, 5-chloro-1-(1-(2,2-difluorobutyl)piperidine-4-yl)-3-((5-(5-(difluoromethyl)-1,3,4-oxadiazole-2-yl)pyridine-2-yl)methyl)-1,3-dihydro-2H-benzo[d]imidazole-2-one], the IC50 on HDAC6 human recombinant (setting [1]) is 107 nM; at HDAC1 (setting [2]), above 10000 nM.

With `CC(F)(F)CN1CCC(n2c(=O)n(Cc3ccc(-c4nnc(C(F)F)o4)cn3)c3cc(Cl)ccc32)CC1` [Compound 234, 5-chloro-3-((5-(5-(difluoromethyl)-1,3,4-oxadiazole-2-yl)pyridine-2-yl)methyl)-1-(1-(2,2-difluoropropyl)piperidine-4-yl)-1,3-dihydro-2H-benzo[d]imidazole-2-one], the concentration for half-maximal inhibition (IC50) was 54 nM at HDAC6 human recombinant (setting [1]) and above 10000 nM on HDAC1 (setting [2]).

With `O=c1n(Cc2ccc(-c3nnc(C(F)F)o3)cn2)c2cc(Cl)ccc2n1C1CCN(CC(F)(F)C(F)F)CC1` [Compound 235, 5-chloro-3-((5-(5-(difluoromethyl)-1,3,4-oxadiazole-2-yl)pyridine-2-yl)methyl)-1-(1-(2,2,3,3-tetrafluoropropyl)piperidine-4-yl)-1,3-dihydro-2H-benzo[d]imidazole-2-one], the half-maximal inhibitory concentration (IC50) at HDAC6 human recombinant (setting [1]) is 103 nM; on HDAC1 (setting [2]) it was above 10000 nM.

Regarding `O=c1n(Cc2ccc(-c3nnc(C(F)F)o3)cn2)c2cc(Cl)ccc2n1C1CCN(CC(F)(F)F)CC1` [Compound 236, 5-chloro-3-((5-(5-(difluoromethyl)-1,3,4-oxadiazole-2-yl)pyridine-2-yl)methyl)-1-(1-(2,2,2-trifluoroethyl)piperidine-4-yl)-1,3-dihydro-2H-benzo[d]imidazole-2-one], the IC50 at HDAC6 human recombinant (setting [1]) was 68 nM; on HDAC1 (setting [2]), above 10000 nM.
